Assay results taken from US9913858B2, “Prevention and treatment of toxicosis” (priority 2013, dated 2018).
Where two headings read alike, the source gives them in different places.

Experiments:
[1] = tested on: lolitrem B toxicosis (Rye Grass Staggers); test: Gait analysis and time to falling; type: in vivo, sheep; settings: for time to falling: by context untreated, toxin only
Protocol: Gait analysis was performed on entry to the trial and at designated time points throughout the trial as described above. To achieve this, animals were moved from their individual pens to an external yard in their cohort groups (five animals, one from each treatment). Animals were then encouraged to move at a run, initially in a group and then individually, for a minimum of three minutes per animal whilst their movement was captured on video and gait observations recorded.
Once all animals had been analysed the whole cohort was returned to their individual pens. Gait abnormalities such as stumbling, falling or disorientation were noted, including observation of Type 1 or Type 2 gait changes as described in Combs et, al., (2014). Type I movement disorder is defined as an impaired alternating movement (dysdiadochokinesia), bunny-hopping gait and failure to maintain an appropriate direction. Type 2 movement disorder is defined by increasing rigidity of limbs on forced movement resulting finally in tonic fore and hind limb extension with the animal collapsing into sternal or lateral recumbency (Combs, Rendell et at 2014). Scores between those denoted above were considered as a gradation between the stated clinical observations. Analysis of gait was performed using the following scale in Table 2 and a composite score noted for each animal for each day during the end of trial protocol. A total score out of 30 was determined for each animal. The higher the score the greater the locomotory disturbance. Time to falling was determined post trial by analysis of video material,
Animals that met the entry criteria (severe Type 2 gait abnormality and falling) were submitted to the end-of-trial protocol. […] Animals were subjected to the following tests on days 1 and 3: gait analysis, full neurological examination, venous blood and urine sampling and EMG. Only gait analysis was performed on day 2.

[2] = tested on: cerebellum; type: in vivo; settings: sheep cerebellum
Protocol: A full clinical examination was performed prior to euthanasia. At euthanasia, 100 I.U. heparin (Provet Riverina Pty Ltd) was injected into the jugular vein, followed shortly by Lethabarb (20 mL/40 kg LW). Immediately after euthanasia, the ventral articulation of C1 was exposed and cerebrospinal fluid (CSF) collected using a 23 g needle. The head was then removed and subjected to perfusion fixation. Briefly, the carotid arteries were exposed and a small catheter inserted and ligated to secure the perfusion lines. Two liters of 0.1% phosphate buffered saline (PBS) containing 3000 I.U of heparin/L was then slowly perfused via the ligated vessels at a pressure of 90 mm Hg using a Microgon peristaltic Pump (Microgon, Laguna Hills, Calif.). Once complete this was replaced with 4% paraformaldehyde (Sigma-Alrich) in 0.1% PBS and a further two liters allowed to perfuse slowly through the tissues of the head. Once complete, catheters were removed and the whole head placed at 4° C. overnight to complete fixation. Twenty-four hours post perfusion fixation the brain was removed from the skull and placed in 10% formal saline for storage until dissection for processing to wax sections.
Concurrent to fixation perfusion of the head, a routine ovine necropsy was performed and all general tissues taken for routine histopathology. These were heart, lung, oesophagus and trachea, liver, spleen, gut (rumen, abomasum, ileocaecal junction, ileum, caecum and colon), skeletal muscle (gluteal, tricep and diaphram), kidney, pancreas, thymus, ileal and cranial lymph nodes as well as tissues from any gross abnormalities observed at time post necropsy. Other samples: subcutaneous fat, renal fat, gluteal muscle, kidney, faeces and rumen contents were collected and stored at −80° C. for future toxicological analysis. Samples for routine histopathology were fixed in 10% formal saline for a minimum of 48 hours before processing to wax using an automated wax embedder (Shandon Excelsior ES Tissue Processor, Thermo Fisher Scientific).
For histopathology, sections of brain and spinal cord included the following regions: mid cerebellar peduncle; mid and lateral sections of cerebellum; obex, occipital cortex; rostral colliculi; basal ganglia; frontal cortex; temporal cortex; thalamus; hippocampus; internal capsule; cervical, thoracic and lumbar spinal cord and pituitary. Other tissues examined for routine histopathology were kidney; lung; ileum; heart; liver including, gall bladder and bile duct; diaphragm; rumen; and colon. All sections were cut at 5 μm and stained with Haematoxylin and Eosin (H&E) using an automated staining system (Shandon Varistain Gemini ES Slide Stainer, Thermo Fisher Scientific).

[3] = tested on: lolitrem B toxicosis (Rye Grass Staggers); test: Electromyography, tremor intensity; type: in vivo, sheep; settings: lolitrem B intoxicated, EMG
Protocol: EMGs were recorded on entry to the trial, entry to the end of trial (Day 1) and date of post mortem (Day 3) using Powerlab™ (ADInstruments, Castle Hill, Australia) and data recorded using LabChart™ software (ADInstruments, Australia). In preparation, the fleece was shorn from an area over the triceps muscle and along brachiocephalicus muscle of the neck. EMG electrodes were attached to the skin using SuperGlue™. Muscle activity was recorded for a minimum of three minutes with the animal standing at rest with a band pass filter set at 100 Hz. Three minute EMG recordings were taken using Ag—AgCl surface electrodes over the triceps muscle on to entry to the trial, on first day of falling (Day 1) and 48 hours post treatment (Day 3). Data analysis was achieved by application of a Fast-Fourier transformation for statistical comparison. Area under the curve was then calculated at frequencies between 5 and 30 Hz to estimate tremor intensity.

[4] = Group 3: toxin plus acute treatment
[5] = Group 4: toxin plus prophylactic treatment
[6] = Group 5: prophylactic treatment only

Q: What does the source list for `CC(C)=C[C@H]1O[C@H]2[C@H]3O[C@@]34[C@H](CC[C@@]3(C)[C@@]4(O)CC[C@H]4Cc5c([nH]c6ccc7c(c56)C[C@@H]5[C@@H](C7=O)C(C)(C)OC5(C)C)[C@@]43C)O[C@@H]2C(C)(C)O1` [lolitrem B]?
A: composite gait scores over the same time course ([1]; Group 2 sheep, untreated intoxicated, p=0.05): increase; animals falling, no improvement over the same time period ([1]; positive control sheep, toxic feed, not treated with potassium bromide): 7/7; time to falling ([1]; printed as Group 3 Day 2): 59.0 ± 23.50 s; time to falling ([1]; printed as Group 3 Day 3): 51.52 ± 20.23 s; animals progressing to falling over the same timeframe (22 days) ([1]; sheep, Groups 2 and 3, toxic feed): 5; Incidence of Purkinje neuron vacuolation ([2]; Group 2: toxin only): 5/9; Incidence of pyknotic cell bodies in granular layer ([2]; Group 2: toxin only): 9/9; Incidence of spheroids, granular layer ([2]; Group 2: toxin only): 7/9; Incidence of spheroids, molecular layer ([2]; Group 2: toxin only): 1/9; Day 1: Day 3 tremor intensity ratio, median ([3]; Group 2 sheep, no treatment): 2.03

Q: What does the source list for `[Br-].[K+]` [potassium bromide]?
A: composite gait score, Day 1 (pre-treatment) to Day 2 (24 hours post treatment) ([1]; Group 3 sheep, lolitrem B toxin, oral 300 mg/kg LW potassium bromide, p=0.001): significant reduction; time to falling in intoxicated animals ([1]; intoxicated sheep, oral 300 mg/kg BW potassium bromide on day of falling): significantly improve; animals failing to fall when driven to movement for a continuous period of 5 minutes ([1]; intoxicated sheep, oral 300 mg/kg BW potassium bromide on day of falling, 24 and 48 hours after treatment): 8/9; animals progressing to falling in the designated 22 days of treatment ([1]; sheep, prophylactic potassium bromide plus toxic feed (Group 4)): one; Incidence of Purkinje neuron vacuolation [2, 4]: 2/9; Incidence of pyknotic cell bodies in granular layer [2, 4]: 5/9; Incidence of spheroids, granular layer [2, 4]: 7/9; Incidence of spheroids, molecular layer [2, 4]: 0/9; Incidence of Purkinje neuron vacuolation [2, 5]: 1/9; Incidence of pyknotic cell bodies in granular layer [2, 5]: 9/9; Incidence of spheroids, granular layer [2, 5]: 6/9; Incidence of spheroids, molecular layer [2, 5]: 3/9; Incidence of Purkinje neuron vacuolation [2, 6]: 0/9; Incidence of pyknotic cell bodies in granular layer [2, 6]: 2/9; Incidence of spheroids, granular layer [2, 6]: 1/9; Incidence of spheroids, molecular layer [2, 6]: 3/9; Day 1: Day 3 tremor intensity ratio ([3]; Group 3 sheep, acute KBr treatment): 0.81
